The text below walks through data of article PMC6522510 (Nature Communications, 2019).

Where two headings read alike, the source gives them in different places.

Among the test systems are CHRF288-11; CMK; CMS; M07e; ML-2; MOLM-13; MV4-11; U937.
Parameters in all cases: species or system AML cell lines (8); Primary HTS, single concentration about 10 uM, Cell Titer Glo viability; log10 luminescence, per cent inhibition relative to cycloheximide control
Common to all, as to details: 72 h, relative to cycloheximide control, log10 luminescence, inhibitor
Background: ATP-based viability assays read luminescence as a measure of living cells.

For the molecule `NC(=O)c1cccc(Nc2nccc(Nc3cccc(F)c3)n2)c1` [SJ000573164-1, R5869/121/5], the CHRF288-11 %inh in the test with CHRF288-11 is 8.575%. Also, the CMK %inh in the test with CMK is on record as 19.08%. In the test on CMS, the CMS %inh worked out at 5.376%. Also, the M07e %inh with M07e came to 12.07%. Also, in the test on ML-2, the ML-2 %inh turned out to be 3.111%. Further, in the test on MOLM-13, the MOLM-13 %inh stood at 57.29%. Also, the MV4-11 %inh in the test on MV4-11 is 21.87%. For the same molecule, the U937 %inh in the test on U937 is given as 1.036%.

As to `COC(=O)Nc1nc2cc(Oc3ccc(NC(=O)Nc4ccccc4)cc3)ccc2[nH]1` [SJ000573165-1, T261/64/2], in the test with CHRF288-11, the CHRF288-11 %inh was found to be 29.47%. Besides, the CMK %inh in the test with CMK is recorded as 109.7%. The CMS %inh with CMS is given as 99.63%. Also, in the test on M07e, the M07e %inh came out at 91.37%. Further, the ML-2 %inh with ML-2 was 57.46%. The MOLM-13 %inh with MOLM-13 is recorded as 87.75%. Moreover, in the test on MV4-11, the MV4-11 %inh is 69.12%. In addition, in the test with U937, the U937 %inh was found to be 81.37%.

On to `Cc1nnc(-c2ccc(C)c(-c3ccc(C(=O)NCc4ccc(Cl)cc4)cc3)c2)o1` [SJ000573166-1, R5419/62/6], for which the CHRF288-11 %inh in the test with CHRF288-11 is -0.1255%. In addition, the CMK %inh with CMK is on record as 2.525%. For the same molecule, the CMS %inh in the test on CMS is 4.153%. In addition, the M07e %inh with M07e was found to be 6.199%. The ML-2 %inh in the test on ML-2 turned out to be 2.787%. Moreover, in the test on MOLM-13, the MOLM-13 %inh is given as 2.185%. In the test with MV4-11, the MV4-11 %inh is given as -0.3161%. The U937 %inh in the test with U937 amounted to 3.066%.

For `NC(=O)c1sc(-n2cnc3ccc(C(F)(F)F)cc32)cc1OCc1ccccc1Br` [SJ000573167-1, U19121/196/1], the CHRF288-11 %inh in the test with CHRF288-11 was determined as 1.336%. Besides, the CMK %inh in the test on CMK was -1.461%. In addition, in the test on CMS, the CMS %inh is listed as 15.36%. Further, the M07e %inh in the test on M07e is reported as 5.031%. Moreover, in the test on ML-2, the ML-2 %inh turned out to be 22.34%. Also, the MOLM-13 %inh in the test with MOLM-13 is listed as 2.5%. The MV4-11 %inh in the test with MV4-11 was found to be 1.988%. The U937 %inh with U937 stood at 43.5%.

For the molecule `Nc1nccc(-c2c(-c3ccc(F)cc3)ncn2C2CCNCC2)n1` [SJ000573168-1, JB-19127-269D | LD19161-244A1], the CHRF288-11 %inh in the test with CHRF288-11 (CHRF288-11 %inh, 10 µM) came to 34.51%. Moreover, in the test with CMK (CMK %inh, 10 µM), the CMK %inh was 44.14%. Moreover, in the test on CMS (CMS %inh, 10 µM), the CMS %inh is 7.951%. The M07e %inh with M07e (M07e %inh, 10 µM) came to 19.95%. The ML-2 %inh with ML-2 (ML-2 %inh, 10 µM) stood at 22.46%. Further, in the test with MOLM-13 (MOLM-13 %inh, 10 µM), the MOLM-13 %inh worked out at 64.89%. Further, in the test on MV4-11 (MV4-11 %inh, 10 µM), the MV4-11 %inh was determined as 77.89%. Also, in the test on U937 (U937 %inh, 10 µM), the U937 %inh came to 27.96%.

As to `Nc1nccc(-c2c(-c3ccc(F)cc3)ncn2C2CCNCC2)n1` [SJ000573168-2, JB-19127-269D | LD19161-244A1], in the test with CHRF288-11 (CHRF288-11 %inh, 10 µM), the CHRF288-11 %inh is reported as 101.4%. Moreover, in the test on CMK (CMK %inh, 10 µM), the CMK %inh is 34.82%. The CMS %inh in the test with CMS (CMS %inh, 10 µM) came out at 15.45%. In addition, in the test with M07e, the M07e %inh is recorded as 16.87%. Also, the ML-2 %inh with ML-2 (ML-2 %inh, 10 µM) amounted to 28.94%. In the test with MOLM-13 (MOLM-13 %inh, 10 µM), the MOLM-13 %inh was 78.79%. For the same molecule, in the test on MV4-11 (MV4-11 %inh, 10 µM), the MV4-11 %inh came out at 54.74%. For the same molecule, in the test with U937 (U937 %inh, 10 µM), the U937 %inh was determined as 15.47%.

In the case of `CC1=C(C(=O)Nc2ccc3[nH]nc(C)c3c2)C(c2ccc(C(F)(F)F)cc2)CC(=O)N1` (stereo not shown) [SJ000573169-1, SD204573-190A1], the CHRF288-11 %inh with CHRF288-11 was 46.87%. Also, the CMK %inh in the test with CMK was determined as 106.1%. In addition, in the test with CMS, the CMS %inh is recorded as 35.88%. Also, in the test with M07e, the M07e %inh is 28.71%. In addition, the ML-2 %inh with ML-2 stood at 13.81%. For the same molecule, the MOLM-13 %inh in the test on MOLM-13 was 15.8%. Further, the MV4-11 %inh with MV4-11 worked out at 29.81%. In the test with U937, the U937 %inh turned out to be 19.8%.

`OCCCNc1nccc(-c2c(-c3ccc(F)cc3)nn3cc(C(F)(F)F)ccc23)n1` [SJ000573170-1, R5361/115/1]: in the test on CHRF288-11, the CHRF288-11 %inh stood at 127.7%. For the same molecule, in the test on CMK, the CMK %inh turned out to be 125%. The CMS %inh with CMS is 105.9%. In the test on M07e, the M07e %inh is -1.662%. Besides, the ML-2 %inh in the test with ML-2 is -1.781%. Besides, in the test on MOLM-13, the MOLM-13 %inh is listed as -2.069%. For the same molecule, in the test on MV4-11, the MV4-11 %inh is reported as -0.4985%. Moreover, the U937 %inh in the test on U937 is reported as 1.034%.

Consider `c1ccc(COc2ccc(Nc3ncnc4ccc(-c5ccco5)cc34)cc2)cc1` [SJ000573171-1, C3157/71/1], for which the CHRF288-11 %inh with CHRF288-11 was -4.196%. Besides, the CMK %inh in the test with CMK turned out to be 6.655%. The CMS %inh in the test with CMS came out at 1.088%. Further, the M07e %inh in the test on M07e was -0.2498%. Further, the ML-2 %inh in the test on ML-2 is 3.492%. Besides, the MOLM-13 %inh in the test with MOLM-13 is given as 27.04%. For the same molecule, in the test with MV4-11, the MV4-11 %inh is on record as 14.65%. The U937 %inh in the test on U937 came to 10.84%.

As to `O=C1NC(=O)C(c2cccc(Cl)c2)=C1Nc1ccc(O)c(Cl)c1` [SJ000573172-1, RS98844-062A3], the CHRF288-11 %inh in the test with CHRF288-11 was 12.93%. Moreover, in the test with CMK, the CMK %inh amounted to 35.38%. In the test on CMS, the CMS %inh is 2.425%. Besides, the M07e %inh in the test with M07e is 6.042%. In addition, in the test on ML-2, the ML-2 %inh is reported as 2.635%. Also, the MOLM-13 %inh in the test with MOLM-13 is recorded as 11.18%. Besides, the MV4-11 %inh in the test on MV4-11 is 8.124%. For the same molecule, the U937 %inh with U937 is listed as 3.736%.

`c1ccc(-c2nc3n(c2-c2ccc4c(c2)OCO4)CCC3)nc1` [SJ000573174-1, JB42196-142B1]: in the test with CHRF288-11, the CHRF288-11 %inh came to 104.5%. Further, the CMK %inh with CMK is listed as 48.28%. Also, the CMS %inh in the test with CMS is on record as 32.28%. Moreover, in the test on M07e, the M07e %inh came out at 7.377%. In addition, in the test on ML-2, the ML-2 %inh is recorded as 5.523%. Besides, the MOLM-13 %inh in the test on MOLM-13 is recorded as 37.41%. The MV4-11 %inh in the test with MV4-11 is 4.462%. In addition, in the test on U937, the U937 %inh was 1.96%.

For the molecule `CN(c1ccc(NC(=O)NCCN2CCOCC2)cc1)c1ccnc(Nc2ccc(CS(C)(=O)=O)cc2)n1` [SJ000573175-1, U17983/92/2], the CHRF288-11 %inh in the test on CHRF288-11 is given as -0.5072%. The CMK %inh in the test on CMK was -0.4287%. Further, the CMS %inh in the test with CMS was found to be 0.2292%. For the same molecule, the M07e %inh in the test on M07e is reported as 2.849%. Moreover, in the test with ML-2, the ML-2 %inh is listed as 2.492%. In addition, the MOLM-13 %inh in the test with MOLM-13 is recorded as 82.21%. Moreover, the MV4-11 %inh with MV4-11 is 85.52%. In addition, the U937 %inh in the test with U937 turned out to be 4.061%.

Turning to `Oc1cccc(-c2nc(-c3ccccc3)[nH]c2-c2ccncc2)c1` [SJ000573176-1, KH49127-012A1], the CHRF288-11 %inh with CHRF288-11 was found to be 2.324%. Moreover, the CMK %inh in the test with CMK came to 4.668%. Moreover, the CMS %inh with CMS worked out at 5.24%. In addition, in the test with M07e, the M07e %inh worked out at 1.15%. Besides, in the test on ML-2, the ML-2 %inh came out at 2.359%. For the same molecule, in the test on MOLM-13, the MOLM-13 %inh is 8.153%. Also, the MV4-11 %inh with MV4-11 is recorded as 3.826%. Besides, the U937 %inh in the test on U937 is given as 2.636%.

For the molecule `CCN(CC)S(=O)(=O)c1ccc(OC)c(Nc2ncc(-c3ccccc3)o2)c1` [SJ000573177-1, U14961/35/1], the CHRF288-11 %inh in the test on CHRF288-11 was -8.829%. The CMK %inh in the test on CMK was 11.05%. In the test with CMS, the CMS %inh turned out to be 2.203%. Moreover, in the test on M07e, the M07e %inh is -3.903%. In the test with ML-2, the ML-2 %inh worked out at 1.232%. Besides, in the test with MOLM-13, the MOLM-13 %inh was found to be 13.29%. In the test on MV4-11, the MV4-11 %inh is given as 74.67%. For the same molecule, in the test with U937, the U937 %inh is 3.148%.

`COc1cccc(-n2nc(C)c3c(N/N=C(\C)c4ccncc4)ncnc32)c1` [SJ000573178-1, U17747/163/1]: the CHRF288-11 %inh in the test on CHRF288-11 was -4.056%. For the same molecule, the CMK %inh with CMK was -0.9949%. Moreover, in the test on CMS, the CMS %inh is 0.07052%. Also, the M07e %inh in the test on M07e was -1.478%. In addition, the ML-2 %inh with ML-2 was -1.055%. For the same molecule, the MOLM-13 %inh in the test on MOLM-13 was -1.351%. For the same molecule, the MV4-11 %inh with MV4-11 is -0.7035%. Also, in the test with U937, the U937 %inh is -2.387%.

Take `O=C1NC(=O)C(c2cccc(Cl)c2)=C1Nc1ccc(Cl)c(C(=O)O)c1` [SJ000573179-1, RS98844-062A1]: in the test on CHRF288-11, the CHRF288-11 %inh is recorded as -5.305%. In the test with CMK, the CMK %inh is -1.769%. Besides, the CMS %inh in the test on CMS was -1.594%. Further, the M07e %inh in the test with M07e was -0.5868%. Further, in the test with ML-2, the ML-2 %inh came to 0.225%. The MOLM-13 %inh in the test with MOLM-13 is listed as -0.7042%. Besides, the MV4-11 %inh with MV4-11 is given as -0.02775%. Further, in the test with U937, the U937 %inh is listed as 1.114%.

As to `Nc1nccc(-c2c(-c3ccc(F)cc3)ncn2CCCN2CCOCC2)n1` [SJ000573180-1, TG19207-124A1], in the test on CHRF288-11, the CHRF288-11 %inh is listed as -0.01823%. The CMK %inh in the test with CMK is reported as -0.5604%. Moreover, the CMS %inh with CMS is on record as -3.18%. Besides, the M07e %inh in the test with M07e is reported as 1.031%. Further, in the test on ML-2, the ML-2 %inh was found to be 2.942%. Besides, the MOLM-13 %inh in the test on MOLM-13 is -0.9293%. Besides, the MV4-11 %inh with MV4-11 was determined as 0.7283%. Further, the U937 %inh with U937 came to 3.947%.
